For this experiment, the system named is Human pancreatic cancer cell line AsPC-1. Briefly: Measurement of AsPC-1 cell growth inhibition (AsPC-1 CGI). The conditions noted are these: 96 h. The format is cell-based. The method, boiled down: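 AsPC-1 cells in 15% FBS RPMI-1640 were exposed to test compound for 96 hours at 37° C, with CellTiter-Glo as endpoint.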

These results are taken from patent US12371454B2, “Cyclic peptide compound having Kras inhibitory action” (priority 2019, dated 2025).

Broadly, the IC50 is the concentration needed to halve the response being measured.

Positions of bridges follow the written chain, without caps; N, C: chain ends. Non-standard residues stand in square brackets, D forms with d. Residues, ends and D or L forms follow the SMILES beside them. *: point of attachment. hPhe(3-Cl-4-CF3) = N[C@@H](CCc1ccc(C(F)(F)F)c(Cl)c1)C(=O)O; hPhe(3-F,4-CF3) = N[C@@H](CCc1ccc(C(F)(F)F)c(F)c1)C(=O)O; NMePhe(4-CF3) = CN[C@@H](Cc1ccc(C(F)(F)F)cc1)C(=O)O; 3Oxa8azabicyclo(3.2.1)octane = C1CC2COCC1N2*; NMePhe(4-Me) = CN[C@@H](Cc1ccc(C)cc1)C(=O)O; NMeAla(cPent) = CN[C@@H](CC1CCCC1)C(=O)O; NMeGly(cPent) = CN[C@H](C(=O)O)C1CCCC1; Gly(cPent) = N[C@H](C(=O)O)C1CCCC1; NMeCha = CN[C@@H](CC1CCCCC1)C(=O)O; NMehLeu = CN[C@@H](CCC(C)C)C(=O)O; NEtLeu = CCN[C@@H](CC(C)C)C(=O)O; NMeChg = CN[C@H](C(=O)O)C1CCCCC1; NMeI = CC[C@H](C)[C@H](NC)C(=O)O; NMeD = CN[C@@H](CC(=O)O)C(=O)O; NMeL = CN[C@@H](CC(C)C)C(=O)O; d(β3hA) = C[C@@H](N)CC(=O)O; Azetidin(1-yl) = C1CN(*)C1; NMeS = CN[C@@H](CO)C(=O)O; Morpholide = C1CN(*)CCO1; NMeA = CN[C@@H](C)C(=O)O; Piperidide = C1CCN(*)CC1; Pyrrolidide = C1CCN(*)C1; Thz = O=C(O)[C@@H]1CSCN1; Ac5c = NC1(C(=O)O)CCCC1; Aze = O=C(O)[C@@H]1CCN1; NEtG = CCNCC(=O)O; Sar = CNCC(=O)O; Propyl = CCC*

`CC[C@H](C)[C@@H]1NC(=O)[C@H](CC(C)C)N(C)C(=O)C[C@@H](C(=O)N2CCCCC2)N(C)C(=O)[C@H](C2CCCCC2)N(C)C(=O)C2(CCCC2)NC(=O)[C@@H]2CSCN2C(=O)[C@H](CCc2ccc(C(F)(F)F)c(Cl)c2)NC(=O)CN(C)C(=O)[C@H](CC2CCCCC2)N(C)C(=O)CN(C)C(=O)CN(C)C1=O` [Compound 1093] ([NMeL]I[Sar][Sar][NMeCha][Sar][hPhe(3-Cl-4-CF3)][Thz][Ac5c][NMeChg][NMeD]-Piperidide; lactam N-11) yielded an IC50 of 20 to 50 nM.

`CC[C@H](C)[C@@H]1NC(=O)[C@H](CC(C)C)N(C)C(=O)C[C@@H](C(=O)N2CCOCC2)N(C)C(=O)[C@H](C2CCCC2)N(C)C(=O)C2(CCCC2)NC(=O)[C@@H]2CCCN2C(=O)[C@H](CCc2ccc(C(F)(F)F)c(Cl)c2)NC(=O)CN(C)C(=O)[C@H](CC2CCCCC2)N(C)C(=O)[C@@H]2CCN2C(=O)[C@H](C)NC1=O` [Compound 1137] ([NMeL]IA[Aze][NMeCha][Sar][hPhe(3-Cl-4-CF3)]P[Ac5c][NMeGly(cPent)][NMeD]-Morpholide; lactam N-11) came in with an IC50 of 20 to 50 nM.

`CC[C@H](C)[C@@H]1NC(=O)[C@H](CC(C)C)N(CC)C(=O)C[C@@H](C(=O)N2CCOCC2)N(C)C(=O)[C@H](C2CCCC2)N(C)C(=O)C2(CCCC2)NC(=O)[C@@H]2CCCN2C(=O)[C@H](CCc2ccc(C(F)(F)F)c(Cl)c2)NC(=O)CN(C)C(=O)[C@H](C2CCCC2)N(C)C(=O)[C@@H]2CCN2C(=O)[C@H](C)NC1=O` [Compound 1140] ([NEtLeu]IA[Aze][NMeGly(cPent)][Sar][hPhe(3-Cl-4-CF3)]P[Ac5c][NMeGly(cPent)][NMeD]-Morpholide; lactam N-11): the IC50 is 100 to 500 nM.

`CC[C@H](C)[C@@H]1NC(=O)[C@H](CC(C)C)N(C)C(=O)C[C@@H](C(=O)N2CCOCC2)N(C)C(=O)[C@H](C2CCCC2)N(C)C(=O)C2(CCCC2)NC(=O)[C@@H]2CCCN2C(=O)[C@H](CCc2ccc(C(F)(F)F)c(Cl)c2)NC(=O)CN(CC)C(=O)[C@H](C2CCCC2)N(C)C(=O)[C@@H]2CCN2C(=O)[C@H](C)N(C)C1=O` [Compound 1142] ([NMeL]I[NMeA][Aze][NMeGly(cPent)][NEtG][hPhe(3-Cl-4-CF3)]P[Ac5c][NMeGly(cPent)][NMeD]-Morpholide; lactam N-11) showed an IC50 of 20 to 50 nM.

As for `CC[C@H](C)[C@@H]1NC(=O)[C@H](CC2CCCC2)N(C)C(=O)C[C@@H](C(=O)N2CCOCC2)N(C)C(=O)[C@H](C2CCCC2)N(C)C(=O)C2(CCCC2)NC(=O)[C@@H]2CCCN2C(=O)[C@H](CCc2ccc(C(F)(F)F)c(Cl)c2)NC(=O)CN(C)C(=O)[C@H](C2CCCC2)N(C)C(=O)[C@@H]2CCN2C(=O)[C@H](C)NC1=O` [Compound 1145] ([NMeAla(cPent)]IA[Aze][NMeGly(cPent)][Sar][hPhe(3-Cl-4-CF3)]P[Ac5c][NMeGly(cPent)][NMeD]-Morpholide; lactam N-11), the IC50 was in the range of 100 to 500 nM.

In the case of `CC[C@H](C)[C@@H]1NC(=O)[C@H](CC(C)C)N(CC)C(=O)C[C@@H](C(=O)N2CCCC2)N(C)C(=O)[C@H]([C@@H](C)CC)N(C)C(=O)C2(CCCC2)NC(=O)[C@@H]2CCCN2C(=O)[C@H](CCc2ccc(C(F)(F)F)c(Cl)c2)NC(=O)CN(C)C(=O)[C@H](Cc2ccc(C(F)(F)F)cc2)N(C)C(=O)[C@@H]2CCN2C(=O)[C@H](C)NC1=O` [Compound 1146] ([NEtLeu]IA[Aze][NMePhe(4-CF3)][Sar][hPhe(3-Cl-4-CF3)]P[Ac5c][NMeI][NMeD]-Pyrrolidide; lactam N-11), the IC50 is 20 to 50 nM.

For `CCCOC[C@H]1C(=O)N(C)CC(=O)N[C@@H](CCc2ccc(C(F)(F)F)c(Cl)c2)C(=O)N2CCC[C@H]2C(=O)NC2(CCCC2)C(=O)N(C)[C@@H](C2CCCC2)C(=O)N(C)[C@H](C(=O)N2C3CCC2COC3)CC(=O)N(C)[C@@H](CCC(C)C)C(=O)N[C@@H]([C@@H](C)CC)C(=O)N(C)[C@@H](C)C(=O)N2CC[C@H]2C(=O)N1C` [Compound 1154] ([NMehLeu]I[NMeA][Aze][NMeS](Propyl)[Sar][hPhe(3-Cl-4-CF3)]P[Ac5c][NMeGly(cPent)][NMeD]-{3Oxa8azabicyclo(3.2.1)octane}; lactam N-11), the IC50 lay within 20 to 50 nM.

On to `CC[C@H](C)[C@@H]1NC(=O)[C@H](CC(C)C)N(C)C(=O)C[C@@H](C(=O)N2CCCC2)N(C)C(=O)[C@H]([C@@H](C)CC)N(C)C(=O)C2(CCCC2)NC(=O)[C@@H]2CCCN2C(=O)[C@H](CCc2ccc(C(F)(F)F)c(Cl)c2)NC(=O)CN(CC)C(=O)[C@H](Cc2ccc(C(F)(F)F)cc2)N(C)C(=O)[C@@H]2CCN2C(=O)[C@H](C)N(C)C1=O` [Compound 1159] ([NMeL]I[NMeA][Aze][NMePhe(4-CF3)][NEtG][hPhe(3-Cl-4-CF3)]P[Ac5c][NMeI][NMeD]-Pyrrolidide; lactam N-11), for which the IC50 is 20 to 50 nM.

`CC[C@H](C)[C@@H]1NC(=O)[C@H](CC(C)C)N(C)C(=O)C[C@@H](C(=O)N(C)C)N(C)C(=O)[C@H](C2CCCC2)N(C)C(=O)C2(CCCC2)NC(=O)[C@@H]2CCCN2C(=O)[C@H](CCc2ccc(C(F)(F)F)c(F)c2)NC(=O)CN(C)C(=O)[C@H](CC2CCCCC2)N(C)C(=O)[C@@H]2CCN2C(=O)[C@H](C)NC1=O` [Compound 1164] ([NMeL]IA[Aze][NMeCha][Sar][hPhe(3-F,4-CF3)]P[Ac5c][NMeGly(cPent)][NMeD]-NMe2; lactam N-11) came in with an IC50 of 20 to 50 nM.

In the case of `CCCOC[C@H]1C(=O)N(C)CC(=O)N[C@@H](CCc2ccc(C(F)(F)F)c(Cl)c2)C(=O)N2CCC[C@H]2C(=O)NC2(CCCC2)C(=O)N(C)[C@@H](C2CCCC2)C(=O)N(C)[C@H](C(=O)N2C3CCC2COC3)CC(=O)N(CC)[C@@H](CC(C)C)C(=O)N[C@@H]([C@@H](C)CC)C(=O)N[C@@H](C)C(=O)N2CC[C@H]2C(=O)N1C` [Compound 1167] ([NEtLeu]IA[Aze][NMeS](Propyl)[Sar][hPhe(3-Cl-4-CF3)]P[Ac5c][NMeGly(cPent)][NMeD]-{3Oxa8azabicyclo(3.2.1)octane}; lactam N-11), the IC50 was in the range of 100 to 500 nM.

On to `CC[C@H](C)[C@@H]1NC(=O)[C@H](CCC(C)C)N(C)C(=O)C[C@@H](C(=O)N2CCOCC2)N(C)C(=O)[C@H](C2CCCC2)N(C)C(=O)C2(CCCC2)NC(=O)[C@@H]2CCCN2C(=O)[C@H](CCc2ccc(C(F)(F)F)c(Cl)c2)NC(=O)CN(C)C(=O)[C@H](CC2CCCCC2)N(C)C(=O)[C@@H]2CCN2C(=O)[C@H](C)NC1=O` [Compound 1171] ([NMehLeu]IA[Aze][NMeCha][Sar][hPhe(3-Cl-4-CF3)]P[Ac5c][NMeGly(cPent)][NMeD]-Morpholide; lactam N-11), for which the IC50 was in the range of 20 to 50 nM.

With `CC[C@H](C)[C@@H]1NC(=O)[C@H](CC2CCCC2)N(C)C(=O)C[C@@H](C(=O)N2CCOCC2)N(C)C(=O)[C@H](C2CCCC2)N(C)C(=O)C2(CCCC2)NC(=O)[C@@H]2CCCN2C(=O)[C@H](CCc2ccc(C(F)(F)F)c(Cl)c2)NC(=O)CN(C)C(=O)[C@H](CC2CCCCC2)N(C)C(=O)[C@@H]2CCN2C(=O)[C@H](C)NC1=O` [Compound 1176] ([NMeAla(cPent)]IA[Aze][NMeCha][Sar][hPhe(3-Cl-4-CF3)]P[Ac5c][NMeGly(cPent)][NMeD]-Morpholide; lactam N-11), the IC50 lay in the range of 50 to 100 nM.

Consider `CCCOC[C@H]1C(=O)N(C)CC(=O)N[C@@H](CCc2ccc(C(F)(F)F)c(Cl)c2)C(=O)N2CCC[C@H]2C(=O)NC2(CCCC2)C(=O)N(C)[C@@H](C2CCCC2)C(=O)N(C)[C@H](C(=O)N2C3CCC2COC3)CC(=O)N(CC)[C@@H](CC(C)C)C(=O)N[C@@H]([C@@H](C)CC)C(=O)N(C)[C@@H](C)C(=O)N2CC[C@H]2C(=O)N1C` [Compound 1193] ([NEtLeu]I[NMeA][Aze][NMeS](Propyl)[Sar][hPhe(3-Cl-4-CF3)]P[Ac5c][NMeGly(cPent)][NMeD]-{3Oxa8azabicyclo(3.2.1)octane}; lactam N-11), for which the IC50 was 20 to 50 nM.

Turning to `CC[C@H](C)[C@@H]1NC(=O)[C@H](CC(C)C)N(CC)C(=O)C[C@@H](C(=O)N2CCC2)N(C)C(=O)[C@H](C2CCCC2)N(C)C(=O)C2(CCCC2)NC(=O)[C@@H]2CCCN2C(=O)[C@H](CCc2ccc(C(F)(F)F)c(Cl)c2)NC(=O)CN(C)C(=O)[C@H](CC2CCCCC2)N(C)C(=O)[C@@H]2CCN2C(=O)[C@H](C)N(C)C1=O` [Compound 1198] ([NEtLeu]I[NMeA][Aze][NMeCha][Sar][hPhe(3-Cl-4-CF3)]P[Ac5c][NMeGly(cPent)][NMeD]-{Azetidin(1-yl)}; lactam N-11), the IC50 lay within 20 to 50 nM.

`CC[C@H](C)[C@@H]1NC(=O)[C@H](CC(C)C)N(C)C(=O)C[C@@H](C)NC(=O)[C@H](C2CCCC2)NC(=O)C2(CCCC2)NC(=O)[C@@H]2CCCN2C(=O)[C@H](CCc2ccc(C(F)(F)F)c(Cl)c2)NC(=O)CN(C)C(=O)[C@H](Cc2ccc(C)cc2)N(C)C(=O)[C@@H]2CCN2C(=O)[C@H](C)N(C)C1=O` [Compound 1213] (cyclo([Ac5c][Gly(cPent)][d(β3hA)][NMeL]I[NMeA][Aze][NMePhe(4-Me)][Sar][hPhe(3-Cl-4-CF3)]P)): the IC50 is 100 to 500 nM.

Compound `CC[C@H](C)[C@@H]1NC(=O)[C@H](CCC(C)C)N(C)C(=O)C[C@@H](C(=O)N2CCOCC2)N(C)C(=O)[C@H](C2CCCC2)N(C)C(=O)C2(CCCC2)NC(=O)[C@@H]2CCCN2C(=O)[C@H](CCc2ccc(C(F)(F)F)c(Cl)c2)NC(=O)CN(C)C(=O)[C@H](C2CCCC2)N(C)C(=O)[C@@H]2CCN2C(=O)[C@H](C)NC1=O` [Compound 1223] ([NMehLeu]IA[Aze][NMeGly(cPent)][Sar][hPhe(3-Cl-4-CF3)]P[Ac5c][NMeGly(cPent)][NMeD]-Morpholide; lactam N-11) came in with an IC50 of 20 to 50 nM.

In turn, `CC[C@H](C)[C@@H]1NC(=O)[C@H](CC(C)C)N(CC)C(=O)C[C@@H](C(=O)N2CCOCC2)N(C)C(=O)[C@H]([C@@H](C)CC)N(C)C(=O)C2(CCCC2)NC(=O)[C@@H]2CCCN2C(=O)[C@H](CCc2ccc(C(F)(F)F)c(Cl)c2)NC(=O)CN(C)C(=O)[C@H](Cc2ccc(C(F)(F)F)cc2)N(C)C(=O)[C@@H]2CCN2C(=O)[C@H](C)NC1=O` [Compound 1233] ([NEtLeu]IA[Aze][NMePhe(4-CF3)][Sar][hPhe(3-Cl-4-CF3)]P[Ac5c][NMeI][NMeD]-Morpholide; lactam N-11) returned an IC50 of 50 to 100 nM.
